Assays:
[1] = test system: purified linear viral DNA; assay: Circularization of purified linear viral DNA in cytoplasmic extracts of uninfected SupT1 cells; assay type: biochemical, HIV-1; conditions: 1 mM, 37° C., 45 min
Description: Further evidence of a role for host proteins in the formation of the 1-LTR and simple 2-LTR circular forms of viral DNA was obtained by testing the ability of uninfected cell extracts to mediate the circularization of purfied viral DNA. Linear viral DNA was prepared from cytoplasmic extracts of uninfected cells by SDS-proteinase K treatment and phenol extraction. The purfied DNA was added to cytoplasmic extracts prepared form uninfected SupT1 cells, in the presence or absence of added ATP.
Linear viral DNA was purified from cytoplasmic extracts of cells 4 hours post-infection as described above. In FIG. 22, a purified linear viral DNA was added to cytoplasmic extracts from uninfected SupT1 cells and incubated at 37° C. for 45 minutes. The uninfected SupT1 cells used for the preparation of extracts were either untreated (lanes 3-11) or cultured in the presence of 10 ng/ml phorbol 12-myristate 13-acetate for six hours prior to extraction (lane 2). […] Lanes 2-11: reaction products following incubation of purified linear viral DNA in uninfected extracts containing 1 mM ATP (lanes 2 and 3), nothing added (lane 4), 1 mM dATP (lane 5), 1 mM UTP (lane 6), 1 mM CTP (lane 7), 1 mM GTP (lane 8), 1 mM ATPγS (lane 9), or 1 mM ADP (lane 10). Lane 11: uninfected SupT1 cell extract was treated with proteinase K for 10 minutes at 37° C., then linear viral DNA was added and incubation continued for 45 minutes. In FIG. 23, lanes 1, 2, 4 and 5: purified linear viral DNA was incubated with T4 DNA ligase (lane 1), T4 polynucleotide kinase and T4 DNA ligase (lane 2), Klenow fragment of E. coli DNA polymerase I and T4 DNA ligase […], or Klenow fragment, T4 polynucleotide kinase, and T4 DNA ligase (lane 4). Lanes 3 and 6: in vitro circularization reaction products generated in cell extracts, included as size standards. Lane 3: cytoplasmic extracts from infected cells were incubated with […] for 45 minutes; lane 6: purified linear viral DNA was incubated with cytoplasmic extract from uninfected SupT1 cells in the presence of 1 mM ATP for 45 minutes. The possibility that a host DNA ligase was responsible for the formation of the simple 2-LTR circles was examined by testing the ability of phage T4 ligase to catalyze the circularization of linear viral DNA. […] Restriction endonuclease analysis of the reaction products formed in the presence of both Klenow fragment and T4 DNA ligase confirmed the formation of new 2-LTR junctions (not shown). […] This observation is consistent with previous reports that linear viral DNA prepared from cells infected with the murine leukemia virus [Fujiwara and Mizuuchi, Cell, 54:497-504 (1988) and HIV-1 [Pauza, Virology, 179:886-887 (1990)] consists of a mixture of molecules that are either blunt-ended or recessed by two nucleotides at each 3'-terminus. The removal of the two terminal nucleotides is mediated by the viral integrase as a necessary step in the process of integration [Roth et al., Cell 58: 47-54 (1989)]. […] This would explain the requirement of DNA polymerase for the subsequent joining of the ends of viral DNA by DNA ligase.

[2] = test system: linear viral DNA (circularization); assay type: biochemical, HIV-1
Description: The chronically HIV-1 infected Molt IIIB human T cell line (HTLV IIIB virus strain) was the source of virus for cell-free infections. This human T cell line constitutively produces a low level of the HTLV-111B strain of HIV-1. Culture supernatant containing a high concentration of virus was prepared by incubating 300×10^6 Molt IIIB cells in 50 ml fresh RPMI 1640 medium containing 20% fetal calf serum and 10 ng of phorbol 12-myristate 13-acetate per ml for 20-24 hours. […] Cytoplasmic extracts (3 ml) were prepared 4-4.5 hours post-infection, by a modification of the procedure of Brown et al., Cell 49: 342-356 (1987).
At specified times after infection, cells were washed twice with buffer K (20 mM Hepes, pH 7.4, 150 mM KCl, 5 mM MgCl2, 1 mM dithiothreitol, […]) and then lysed at a concentration of 33×10^6 cells per ml in the same buffer containing 0.025% digitonin or 0.025% Triton X-100. Cells were extracted for 10 minutes at room temperature, and the lysate was centrifuged at 1000×g for 3 minutes, and is referred to as "cytoplasmic extract". Cytoplasmic extract was the source of viral DNA for analyses in the assays described below. The pellet from the initial low-speed centrifugation contained cell debris and intact nuclei and is called the "nuclear pellet". Cell extracts from uninfected SupT1 cells were prepared in the same manner.
Viral DNA present in cytoplasmic extracts was deproteinated by incubation with proteinase K (1 mg/ml)/10 mM EDTA/0.5% SDS for 1 hour at 55° C. Samples were extracted successively with phenol/chloroform [1:1 (vol/vol)] and chloroform. DNA was ethanol-precipitated, washed with 70% ethanol, resuspended in 10 mM Tris.HCI (pH 7.4), and treated with RNase A (20 μpg/ml)for 1 hour at […]. before analysis by agarose gel electrophoresis and Southern blotting.
DNA samples were layered on 0.8% agarose gels and electrophoresed at 1 V/cm for 15 hour in Tris/acetate/EDTA buffer. After electrophoresis, DNA was blotted by capillary action onto nitrocellulose (0.45 μm, Schleicher & Schuell).
Cell extracts were prepared from cells four to five hours after infection with HIV-1, using the above-described methods to yield fully functional viral preintegration complexes. […] In all cases, a HIV-1 LTR-containing DNA fragment was used as a hybridization probe. Therefore, only LTR-containing DNA fragments are detected. […] Lane 5: Unintegrated viral DNA prepared by Hirt extraction of SupT1 cells infected 24 hours earlier with concentrated HIV-1. […] Viral DNA was purified from extracts incubated with 1 mM ATP for 15 minutes (lanes 1 and 4), with 1 mM ATP for 45 minutes (lanes 3 and 6), or with 1 mM ATPγS for 45 minutes (lanes 2 and 5). Lanes 1-3: uncut viral DNA; lanes 4-6: viral DNA was cut with SalI prior to electrophorosis. Lane 7: linear viral DNA, prepared from untreated extracts was digested with SalI prior to electrophorosis. Lane 8: unintegrated viral DNA prepared by Hirt extraction of infected cells, as described with respect to FIG. 14, digested with SalI prior to electrophoresis. […] Lanes 1-3. Viral DNA prepared from extracts treated with 1 mM ATP for 15 minutes, 30 minutes and 45 minutes, respectively. Lane 4: Viral DNA prepared from extract treated with 1 mM ATPγS for 45 minutes. Lanes 5-7: products of reactions shown in lanes 1-3, respectively, digested with SalI and PstI prior to electrophoresis. Lane 8: SalI, PstI digestion of viral DNA prepared from extract treated with 1 mM ATP for 90 minutes. Lane 9: SalI, PstI digestion of reaction products shown in lane 4. Lane 10: SalI, PstI digestion of unintegrated viral DNA prepared by Hirt extraction of infected cells.

Compound | 1-LTR circles from purified linear viral DNA [1] | 2-LTR circles from purified linear viral DNA [1] | circularization of purified linear viral DNA [1] | formation of circular viral DNA species ([2]; 1 mM, 37° C., 45 min, no target DNA) | 1-LTR circle formation ([2]; 5 mM ATP) | formation of 2-LTR circles ([2]; 5 mM ATP) | ATP concentration of peak 1-LTR circle formation ([2]; 37° C., 45 or 90 min) | optimal ATP concentration for formation of 2-LTR circles ([2]; 37° C., 45 or 90 min) | 1-LTR [ATP] optimum ([2]; table) | Autointegration [ATP] optimum ([2]; table) | ability to substitute for ATP in formation of simple 2-LTR circles [1] | induction of 1-LTR circular form ([2]; 1 mM, 37° C., 45 min) | induction of 2-LTR circles ([2]; 1 mM, 37° C., 45 min) | 1-LTR circles (restriction analysis) ([2]; 1 mM, 45 min) | origin of 2-LTR circles (SalI/PstI digestion) ([2]; 1 mM, 45 min) | simple 2-LTR circles (SalI/PstI digestion) ([2]; 1 mM, 45 min) | type of circular viral DNA formed ([2]; 1 mM, 45 min, restriction enzyme analysis)
Nc1ncnc2c1ncn2[C@@H]1O[C@H](COP(=O)(O)OP(=O)(O)OP(=O)(O)O)[C@@H](O)[C@H]1O [ATP, adenosine triphosphate] | The most abundant of the new DNA forms comigrated with the 1-LTR circular DNA molecules | a small amount of product migrating as 2-LTR circles could also be detected | New, slowly migrating DNA species were detected | formation of two viral DNA species that migrated more slowly than the linear form of viral DNA | considerable | completely inhibited | 2 mM | 1 mM | 2 mM | 1 mM |  |  |  |  |  |  | 
Nc1ncnc2c1ncn2[C@@H]1O[C@H](COP(=O)(O)OP(=O)(O)OP(O)(O)=S)[C@@H](O)[C@H]1O [ATPγS] |  |  | failed to induce the circularization of purified linear viral DNA |  |  |  |  |  |  |  | None of the other nucleoside triphosphates tested, nor ATPγS, was able to substitute for ATP | unable to induce detectable amounts of the 1-LTR circular forms | induced the formation of 2-LTR circles | no detectable 1-LTR circles | entirely the products of autointegration | absence of simple 2-LTR circles among the reaction products | exclusively of the 2-LTR type
